Measured values taken from patent US5162360A, “2-heteroatom containing urea and thiourea ACAT inhibitors” (Warner-Lambert Company, priority 1991, dated 1992).

How the values were obtained:
[1] = APCC in vivo screen: blood cholesterol in cholesterol-fed rats; parameters: species or system male Sprague-Dawley rats; details: Rattus norvegicus, 192 h, oral, chow diet with peanut oil 5.5%, cholesterol 1.5%, cholic acid 0.5%, blood sampled next day 8 AM, read-out: % Change (mg/dl)
Experimental: In one in vivo screen designated APCC, male Sprague-Dawley rats (200 to 225 g) were randomly divided into treatment groups and dosed orally at 4 PM with either vehicle (CMC/Tween) or suspensions of test compounds in vehicle. The control group received vehicle alone. […] The next day the animals were sacrificed at 8 AM to obtain blood samples for cholesterol analysis using standard procedures. Statistical differences between mean cholesterol values for the same vehicle were determined using analysis of variance followed by Fisher's least significant test. […] The figure in parenthesis indicates the number of milligrams/kilogram of test compound administered.

[2] = target: T1, acyl-coenzyme A:cholesterol acyltransferase (ACAT) (Oryctolagus cuniculus, UniProt G1SFD9); test: In vitro ACAT inhibition (radiolabeled cholesterol oleate formation from oleic acid, rabbit intestinal microsomes); type: biochemical
T1 sequence (G1SFD9 1-524): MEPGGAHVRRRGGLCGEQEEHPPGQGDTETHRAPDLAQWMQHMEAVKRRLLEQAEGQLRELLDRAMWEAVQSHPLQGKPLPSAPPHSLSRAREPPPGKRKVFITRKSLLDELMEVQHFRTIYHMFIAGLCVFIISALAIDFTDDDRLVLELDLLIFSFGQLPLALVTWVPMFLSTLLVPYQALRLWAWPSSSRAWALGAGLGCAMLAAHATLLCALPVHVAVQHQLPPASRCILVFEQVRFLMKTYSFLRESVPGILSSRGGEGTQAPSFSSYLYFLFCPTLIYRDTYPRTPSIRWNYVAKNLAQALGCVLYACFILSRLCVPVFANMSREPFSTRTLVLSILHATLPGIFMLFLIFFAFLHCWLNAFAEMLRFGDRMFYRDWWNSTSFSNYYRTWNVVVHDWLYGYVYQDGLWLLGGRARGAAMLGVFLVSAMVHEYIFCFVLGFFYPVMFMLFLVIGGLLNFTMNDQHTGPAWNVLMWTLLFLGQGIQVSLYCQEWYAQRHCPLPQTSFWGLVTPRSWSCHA
Experimental: The ability of representative compounds of the present invention to inhibit ACAT was measured using an in vitro test more fully described by F. J. Field and R. G. Salone, in Biochemica et Biophysica 712:557-570 (1982). The test assesses the ability of a test compound to inhibit the acylation of cholesterol by oleic acid by measuring the amount of radio-labeled cholesterol oleate formed from radiolabeled oleic acid in a tissue preparation containing rabbit intestinal microsomes.

## CCCCCCCCCCc1sc(NC(=O)Nc2c(C(C)C)cccc2C(C)C)nc1C [Example 1, N-[2,6-bis(1-methylethyl)phenyl]-N'-(5-decyl-4-methyl-2-thiazolyl)urea]
[1]
  change in vivo at 30 mg/kg: -20%

## CCCCCc1sc(NC(=O)Nc2c(C(C)C)cccc2C(C)C)nc1C [Example 3, N-[2,6-bis(1-methylethyl)phenyl]-N-(5-pentyl-4-methyl-2-thiazolyl)urea]
[2]
  IC50: 1900 nM
[1]
  change in vivo at 30 mg/kg: -17%

## CCCCCCc1csc(NC(=O)Nc2c(C(C)C)cccc2C(C)C)n1 [Example 4, N-[2,6-bis(1-methylethyl)phenyl]-N'-(4-hexyl-2-thiazolyl)urea]
[2]
  IC50: 1600 nM
[1]
  change in vivo at 30 mg/kg: 4%

## CC(C)c1cccc(C(C)C)c1NC(=O)Nc1nc(-c2ccccc2)cs1 [Example 5, N-[2,6-bis(1-methylethyl)phenyl]-N'-(4-phenyl-2-thiazolyl)urea]
[2]
  IC50: > 5000 nM

## Cc1csc(NC(=O)Nc2c(C(C)C)cccc2C(C)C)n1 [Example 6, N-[2,6-bis(1-methylethyl)phenyl]-N'-(4-methyl-2-thiazolyl)urea]
[2]
  IC50: > 5000 nM

## CC(C)c1cccc(C(C)C)c1NC(=O)Nc1nc(C(C)(C)C)cs1 [Example 7, N-[2,6-bis(1-methylethyl)phenyl]-N'-(4-tert-butyl-2-thiazolyl)urea]
[2]
  IC50: > 1000 nM

## CCCCCCCCCCCCc1cc(NC(=O)Nc2c(C(C)C)cccc2C(C)C)on1 [Example 8, N-[2,6-bis(1-methylethyl)phenyl]-N'-(3-dodecyl-5-isoxazolyl)urea]
[1]
  change in vivo at 3 mg/kg: -58%
  change in vivo at 30 mg/kg: -61%

## CCCCCCCCCCCCc1cc(NC(=O)Nc2c(C(C)C)cccc2C(C)C)no1 [Example 9, N-[2,6-bis(1-methylethyl)phenyl]-N'-(5-dodecyl-3-isoxazolyl)urea]
[2]
  IC50: 27 nM
[1]
  change in vivo at 3 mg/kg: -54%
  change in vivo at 30 mg/kg: -67%

## CCCCCCCCCCc1cc(NC(=O)Nc2c(C(C)C)cccc2C(C)C)on1 [Example 10, N-[2,6-bis(1-methylethyl)phenyl]-N'-(3-decyl-5-isoxazolyl)urea]
[1]
  change in vivo at 3 mg/kg: -61%
  change in vivo at 30 mg/kg: -69%

## CCCCCCCCCCCc1cc(NC(=O)Nc2c(C(C)C)cccc2C(C)C)on1 [Example 11, N-[2,6-bis(1-methylethyl)phenyl]-N'-(3-undecyl-5-isoxazolyl)urea]
[2]
  IC50: 20 nM
[1]
  change in vivo at 3 mg/kg: -67%
  change in vivo at 30 mg/kg: -70%

## CCCCCCCCCCCCCc1cc(NC(=O)Nc2c(C(C)C)cccc2C(C)C)on1 [Example 12, N-[2,6-bis(1-methylethyl)phenyl]-N'-(3-tridecyl-5-isoxazolyl)urea]
[1]
  change in vivo at 3 mg/kg: -51%
  change in vivo at 30 mg/kg: -62%

## CCCCCCCCCCCCCCc1cc(NC(=O)Nc2c(C(C)C)cccc2C(C)C)on1 [Example 13, N-[2,6-bis(1-methylethyl)phenyl]-N'-(3-tetradecyl-5-isoxazolyl)urea]
[1]
  change in vivo at 3 mg/kg: -44%
  change in vivo at 30 mg/kg: -64%

## CCCCCCCCCCc1cc(NC(=O)Nc2c(C(C)C)cccc2C(C)C)no1 [Example 14]
[2]
  IC50: 28 nM
[1]
  change in vivo at 3 mg/kg: -29%
  change in vivo at 30 mg/kg: -62%

## CCCCCCCCCCCc1cc(NC(=O)Nc2c(C(C)C)cccc2C(C)C)no1 [Example 15, N-[2,6-bis(1-methylethyl)phenyl]-N'-(5-undecyl-3-isoxazolyl)urea]
[2]
  IC50: 27 nM
[1]
  change in vivo at 3 mg/kg: -51%
  change in vivo at 30 mg/kg: -61%

## CCCCCCCCCCCCCc1cc(NC(=O)Nc2c(C(C)C)cccc2C(C)C)no1 [Example 16, N-[2,6-bis(1-methylethyl)phenyl]-N'-(5-tridecyl-3-isoxazolyl)urea]
[1]
  change in vivo at 3 mg/kg: -59%
  change in vivo at 30 mg/kg: -62%

## CCCCCCCCCCCCCCc1cc(NC(=O)Nc2c(C(C)C)cccc2C(C)C)no1 [Example 17, N-[2,6-bis(1-methylethyl)phenyl]-N'-(5-tetradecyl-3-isoxazolyl)urea]
[2]
  IC50: 110 nM
[1]
  change in vivo at 3 mg/kg: -47%
  change in vivo at 30 mg/kg: -58%

## Cc1cc(NC(=O)Nc2c(C(C)C)cccc2C(C)C)no1 [Example 18, N-[2,6-bis(1 methylethyl)phenyl]-N'-(5-methyl-3-isoxazolyl)urea]
[2]
  IC50: > 5000 nM

## CCCCN(CCCC)Cc1cc(NC(=O)Nc2c(C(C)C)cccc2C(C)C)no1 [Example 19, N-[2,6-bis(1-methylethyl)phenyl]-N'-[5-[(dibutylamino)methyl]-3-isoxazolyl]urea]
[2]
  IC50: 510 nM
[1]
  change in vivo at 3 mg/kg: -33%
  change in vivo at 30 mg/kg: -50%

## CCCCCCN(CCCCCC)Cc1cc(NC(=O)Nc2c(C(C)C)cccc2C(C)C)no1 [Example 20, N-[2,6-bis(1-methylethyl)phenyl]-N'-[5-[(dihexylamino)methyl]-3-isoxazolyl]urea]
[2]
  IC50: 2700 nM
[1]
  change in vivo at 30 mg/kg: -7%

## CCCCN(CCCC)Cc1cc(NC(=O)Nc2c(C(C)C)cccc2C(C)C)n(Cc2ccccc2)n1 [Example 22, N-[2,6-bis(1-methylethyl)phenyl]-N'-[3-[(dibutylamino)methyl]-1-(phenylmethyl)-1H-pyrazol-5-yl]urea]
[2]
  IC50: 1900 nM
[1]
  change in vivo at 30 mg/kg: -9%

## CCCCCCCCCCCn1nccc1NC(=O)Nc1c(C(C)C)cccc1C(C)C [Example 23, N-[2,6-bis(1-methylethyl)phenyl]-N'-(1-undecyl-1H-pyrazol-5-yl)urea]
[2]
  IC50: 35 nM
[1]
  change in vivo at 3 mg/kg: 5%
  change in vivo at 30 mg/kg: -64%

## CCCCCCCCCCCCc1cc(NC(=O)Nc2c(C(C)C)cccc2C(C)C)n(-c2ccccn2)n1 [Example 24, N-[2,6-bis(1-methylethyl)phenyl]-N'-[3-dodecyl-1-(2-pyridyl)-1H-pyrazol-5-yl]urea]
[2]
  IC50: 100 nM
[1]
  change in vivo at 30 mg/kg: 9%
